Columns and labels:
[1] = target: T1, tubulin (αβ-heterodimer, bovine brain; maytansine site on β-tubulin); test: equilibrium radioligand binding of 3H-S-methyl DM1 to tubulin-loaded liposomes (apparent Kd); set-up: species or system Bos taurus
T1 construct: with α-tubulin (αβ-heterodimer)

[2] = tested on: T2, tubulin (microtubule-assembled, in MCF7 cells); test: 3H-paclitaxel equilibrium binding to MCF7 cells, Scatchard; assay type: cell-based
T2 construct: endogenous cellular tubulin in MCF7 cells; with αβ-heterodimer in microtubules

Compound | Kd [1] | Kd [2]
COc1cc2cc(c1Cl)N(C)C(=O)C[C@H](OC(=O)[C@H](C)N(C)C(=O)CCSC)[C@]1(C)O[C@H]1[C@H](C)[C@@H]1C[C@@](O)(NC(=O)O1)[C@H](OC)/C=C/C=C(\C)C2 [S-methyl DM1] | 21.5 ± 0.07 nM | –
CC(=O)O[C@H]1C(=O)[C@@]2(C)[C@H]([C@H](OC(=O)c3ccccc3)[C@]3(O)C[C@H](OC(=O)[C@H](O)[C@@H](NC(=O)c4ccccc4)c4ccccc4)C(C)=C1C3(C)C)[C@]1(OC(C)=O)CO[C@@H]1C[C@@H]2O [paclitaxel] | – | 60 ± 10 nM

Reference: publication PMC4324968, “High-Affinity Accumulation of a Maytansinoid in Cells via Weak Tubulin Interaction” (PLoS ONE, 2015)
